This is an account of results in ChEMBL document CHEMBL1147530, “Antimalarial activities of (+)-deoxoartemisitene and its novel C-11, 13 derivatives” (Bioorg Med Chem Lett, 2004).

≈ marks a conversion by molar mass, not a printed value.

The subject of assay [1] is Plasmodium falciparum. The experiment in a line: In vitro antimalarial activity against chloroquine-sensitive Plasmodium falciparum 3D7. It is filed as functional, organism-based.
The test system of assay [2] is Plasmodium falciparum. As to the kind of experiment: In vitro antimalarial activity against chloroquine-resistant Plasmodium falciparum K1. It is filed as functional, organism-based.

One may read the IC50 as the concentration that gives 50% inhibition. A high value points to lower potency. Consider `C=C1CO[C@@H]2O[C@]3(C)CC[C@H]4[C@H](C)CC[C@@H]1[C@@]24OO3`, for which the IC50 in assay [1] and in assay [2] was 0.02 µg/mL (≈ 0.0751 µM) throughout.

For `C[C@@H]1CC[C@H]2[C@@H](C=O)CO[C@@H]3O[C@]4(C)CC[C@@H]1[C@]32OO4`, the figures for the IC50 in assay [1] and in assay [2] were 0.12 µg/mL (≈ 0.425 µM) and 3.01 µg/mL (≈ 10.7 µM), respectively.

For the compound `C[C@@H]1CC[C@H]2[C@@H](C(=O)O)CO[C@@H]3O[C@]4(C)CC[C@@H]1[C@]32OO4`, the figures for the half-maximal inhibitory concentration (IC50) in assay [1] and in assay [2] were 1.09 µg/mL (≈ 3.65 µM) and 0.65 µg/mL (≈ 2.18 µM), respectively.

As for `C[C@@H]1CC[C@@H]2[C@]34OO[C@@](C)(CC[C@@H]13)O[C@H]4OC[C@]2(C)O`, the IC50 turned out to be 0.07 µg/mL (≈ 0.246 µM) in assay [1] and 0.05 µg/mL (≈ 0.176 µM) in assay [2].

Take `C[C@@H]1CC[C@H]2[C@@H](COC[C@H]3CO[C@@H]4O[C@]5(C)CC[C@H]6[C@H](C)CC[C@@H]3[C@@]46OO5)CO[C@@H]3O[C@@]4(C)CC[C@@H]1[C@]32OO4`: the figures for the concentration for half-maximal inhibition (IC50) in assay [1] and in assay [2] were 0.04 µg/mL (≈ 0.0726 µM) and 0.02 µg/mL (≈ 0.0363 µM), respectively.

On to `C[C@@H]1CC[C@H]2C(=O)CO[C@@H]3O[C@]4(C)CC[C@@H]1[C@]32OO4`, for which the half-maximal inhibitory concentration (IC50) in assay [1] was 0.02 µg/mL (≈ 0.0745 µM); in assay [2], 0.006 µg/mL (≈ 0.0224 µM).

On to `C[C@@H]1CC[C@H]2[C@@]3(CO[C@@H]4O[C@]5(C)CC[C@@H]1[C@]42OO5)CO3`, for which the IC50 in assay [1] was 0.03 µg/mL (≈ 0.106 µM); in assay [2] it was 0.01 µg/mL (≈ 0.0354 µM).

Turning to `C[C@@H]1CC[C@H]2[C@H](CO)CO[C@@H]3O[C@]4(C)CC[C@@H]1[C@]32OO4`, the IC50 in assay [1] was 0.06 µg/mL (≈ 0.211 µM); in assay [2], 0.05 µg/mL (≈ 0.176 µM).

For `C[C@@H]1CC[C@H]2[C@@H](CBr)CO[C@@H]3O[C@]4(C)CC[C@@H]1[C@]32OO4`, the 50% inhibitory concentration (IC50) in assay [1] turned out to be 0.01 µg/mL (≈ 0.0288 µM); in assay [2], 0.003 µg/mL (≈ 0.00864 µM).

Consider `C[C@@H]1CC[C@H]2[C@@H](COS(C)(=O)=O)CO[C@@H]3O[C@]4(C)CC[C@@H]1[C@]32OO4`, for which the 50% inhibitory concentration (IC50) in assay [1] was found to be 0.09 µg/mL (≈ 0.248 µM); in assay [2], 0.06 µg/mL (≈ 0.166 µM).

For the compound `C[C@@H]1CC[C@H]2[C@H](C=O)CO[C@@H]3O[C@]4(C)CC[C@@H]1[C@]32OO4`, the IC50 in assay [1] is 2.02 µg/mL (≈ 7.15 µM); in assay [2], 0.46 µg/mL (≈ 1.63 µM).

In the case of `C[C@@H]1CC[C@H]2[C@@H](CO)CO[C@@H]3O[C@]4(C)CC[C@@H]1[C@]32OO4`, the IC50 was below 0.0001 µg/mL in assay [1] and 0.0006 µg/mL (≈ 0.00211 µM) in assay [2].

`Cc1ccc(S(=O)(=O)OC[C@H]2CO[C@@H]3O[C@]4(C)CC[C@H]5[C@H](C)CC[C@@H]2[C@@]35OO4)cc1`: the results for the half-maximal inhibitory concentration (IC50) in assay [1] and in assay [2] were 0.3 µg/mL (≈ 0.684 µM) and 0.05 µg/mL (≈ 0.114 µM), respectively.

With `C[C@@H]1CC[C@H]2[C@H](CBr)CO[C@@H]3O[C@]4(C)CC[C@@H]1[C@]32OO4`, the values for the half-maximal inhibitory concentration (IC50) in assay [1] and in assay [2] were 0.0002 µg/mL (≈ 0.000576 µM) and below 0.0001 µg/mL, respectively.

For `C[C@@H]1CC[C@H]2[C@@H](C)C(=O)O[C@@H]3O[C@@]4(C)CC[C@@H]1[C@]32OO4` [ARTEMISININ], the half-maximal inhibitory concentration (IC50) in assay [1] turned out to be 0.01 µg/mL (≈ 0.0354 µM); in assay [2], 0.002 µg/mL (≈ 0.00708 µM).

Take `CCO[C@H]1O[C@@H]2O[C@@]3(C)CC[C@H]4[C@H](C)CC[C@@H]([C@H]1C)[C@@]24OO3` [ARTEMOTIL]: the IC50 in assay [1] and in assay [2] was below 0.0001 µg/mL each time.

Take `C[C@H]1[C@H](OC(=O)CCC(=O)O)O[C@@H]2O[C@@]3(C)CC[C@H]4[C@H](C)CC[C@@H]1[C@@]24OO3` [ARTESUNATE]: the IC50 is 0.0002 µg/mL (≈ 0.00052 µM) in assay [1] and 0.0006 µg/mL (≈ 0.00156 µM) in assay [2].
